Test results: patent JP2019059697A, “置換された多環性ピリダジン誘導体およびそのプロドラッグ” (priority 2017, dated 2019)

System: influenza virus [インフルエンザウイルス]
Experiment: microbe, parasite or virus in culture
Type: cell-based
Conditions: unidentified influenza virus, 72 h, read-out: 50% influenza-infected cell death inhibition concentration (EC50)

Structure (SMILES) | EC50 [nM]
O=C1c2c(O)c(=O)cnn2N(C2c3ccccc3SCc3c2ccc(F)c3F)C2COCCN12 (single isomer, unassigned) [化合物I−1] | 18.2
CCN1CN(C2c3ccccc3CCc3ccccc32)n2ncc(=O)c(O)c2C1=O [化合物I−2] | 207
